EP0513000B1, “MRI IMAGE ENHANCEMENT OF BONE AND RELATED TISSUE USING COMPLEXES OF PARAMAGNETIC CATIONS AND POLYPHOSPHONATE LIGANDS” (CONCAT LTD., priority 1989, dated 1991)

What was measured:
[1] = tested on: mice; assay: Toxicity after intravenous administration to mice, two-week observation; assay type: in vivo; details: for Survived?: mice, intravenous, alive at end of two-week period
Method: Physiological salts of the various ligand/metal cation complexes described herein were administered intravenously to mice. […] The mice were considered to have "survived" administration of each agent if they were alive at the end of the two-week period.

[2] = In vivo distribution of radioisotopically labeled analogs (radioassay of tissues); design: species or system mice; details: radioisotope analog; for concentration of agent in brain: within the first hour
Method: (§1) The resulting complexes were subjected to radiochromatography to insure acceptable radiopurity and identity with the parent complexes. They were then administered intravenously to mice in order to measure in vivo distribution and whole body clearance. The location of the test species in the mice's bodies and the rate at which the test species were cleared from the mice's bodies after administration were determined by radioassay of tissues and whole body counting, both performed by conventional gamma ray counting techniques. Concentration of activity in tissues was determined as activity per gram of tissue, and whole body counts were expressed as the percentage of whole body activity at a given time with respect to whole body activity immediately after injection. The results were as follows: • 1. Radioisotopes of Test Species A and B. In vivo distribution. […] By measurements taken one hour after administration, the ratio of the concentration of the test species in bone to that in whole blood was generally over 25:1, while the ratio of their concentration in kidney to that in blood was generally over 10:1. Even after 24 hours, when less than 5% of the administered dose remained in the body (see below), a high ratio of concentration of the test species in bone and kidney to that in blood was maintained. […] Whole Body Clearance. […] Radioisotope of Test species C. In vivo distribution. One hour after administration, the measured bone-to-blood concentration ratio was greater than 4.5:1, and the measured kidney-to-blood ratio was greater than 5.5:1. […] Whole Body Clearance. Within 24 hours of administration, over 95% of the tent species had been cleared from the body. • 3. Radioisotope of Test Species D. In vivo distribution. One hour after administration, the measured bone-to-blood concentration ratio was greater than 6:1, and the measured kidney-to-blood ratio was greater than 10:1. […] Whole Body Clearance.

[3] = Relative equilibrium constant measurements (competition with EHPG for Fe(III)); assay type: physicochemical; details: 0.25M phosphate buffer at pH 7.2, heated overnight at 100°C, TLC and colour
Method: The highly colored Fe(III) complex of EHPG (used for comparison in part E of this example) was dissolved in 0.25 M phosphate buffer at pH 7.2, and an equimolar quantity of N,N',N''-tris(dihydroxyphosphorylmethyl)-1,4,7-triazacyclononane was added. The solution was heated overnight at 100°C.
The reverse experiment was also performed. The Fe(III) complex of N,N',N''-tris(dihydroxyphosphorylmethyl)-1,4,7-triazacyclononane was thus dissolved in 0.25M phosphate buffer at pH 7.2, and an equimolar quantity of EHPG was added. The solution was heated overnight at 100°C.

[4] = Whole body clearance of radioisotopically labeled analogs (whole body counting); assay type: in vivo; details: mice, intravenous, radioisotope analog
Method: Radioisotopically labeled analogs of test species selected from those listed above were synthesized, using radioisotopes of Fe(III) (iron-59), Cr(III) (chromium-51) and Gd(III) (gadolinium-153), and employing the general synthesis procedures described above. The resulting complexes were subjected to radiochromatography to insure acceptable radiopurity and identity with the parent complexes. They were then administered intravenously to mice in order to measure in vivo distribution and whole body clearance.
as §1, with “The” for “The resulting complexes were subjected to radiochromatography to insure acceptable radiopurity and identity with the parent complexes. They were then administered intravenously to mice in order to measure in vivo distribution and whole body clearance. The”

[5] = Proton longitudinal relaxivity (1/τ1) measurements; assay type: physicochemical; details: 20 MHz, 0.1 M phosphate buffer at pH 7.2
Method: Measurements of proton longitudinal relaxivity (1/τ1) were performed on some of the test species listed above, and compared with those obtained using the following complexes outside the scope of this invention: (i) Gd(III) with diethylenetriamine pentaacetic acid (DTPA), and (ii) Fe(III) with N,N'-ethylenebis[(2-hydroxyphenyl)-glycinate] (EHPG). All measurements were obtained using a Bruckner PC/20 Minispec device operating at 20 MHz. All samples were dissolved in 0.1 M phosphate buffer at pH 7.2.

[6] = Stability: TLC before and after heating; assay type: physicochemical; details: heating at 100°C for two hours
Method: TLC was performed on test species A and D, both before and after heating at 100°C for two hours.

[7] = Water solubility; assay type: physicochemical; details: read-out: soluble in water at concentrations
[8] = within 24 hours of administration

O=P(O)(O)CN1CCN(CP(=O)(O)O)CCN(CP(=O)(O)O)CC1 [Test Species B, N,N',N''-tris(dihydroxyphosphorylmethyl)-1,4,7-triazacyclononane]
Survived? ([1]; Dose 9.8mM/kg, Rate 0.7mM/min/kg): yes

O=P(O)(O)CN1CCN(CP(=O)(O)O)CCN(CP(=O)(O)O)CC1 [Test Species D, N,N',N''-tris(dihydroxyphosphorylmethyl)-1,4,7-triazacyclononane]
Survived? ([1]; Dose 2.9mM/kg, Rate 0.5mM/sec/kg): yes | concentration of agent in brain ([2]; mice, intravenous): very low concentration

O=P(O)(O)CN1CCN(CP(=O)(O)O)CCN(CP(=O)(O)O)CC1 [Test Species E, N,N',N''-tris(dihydroxyphosphorylmethyl)-1,4,7-triazacyclononane]
Survived? ([1]; Dose 2.9mM/kg, Rate 1.1mM/min/kg): yes

O=P(O)(O)CN1CCN(CP(=O)(O)O)CCN(CP(=O)(O)O)CC1 [Test Species F, N,N',N''-tris(dihydroxyphosphorylmethyl)-1,4,7-triazacyclononane]
Survived? ([1]; Dose 8.0mM/kg, Rate 2.6mM/min/kg): yes

O=P(O)(O)CN1CCN(CP(=O)(O)O)CCN(CP(=O)(O)O)CC1 [N,N',N''-tris(dihydroxyphosphorylmethyl)-1,4,7-triazacyclononane]
species present after equimolar ligand was added to Fe(III) complex of EHPG [3]: TLC showed only the presence of the Fe(III) N,N',N''-tris(dihydroxyphosphorylmethyl)-1,4,7-triazacyclononane complex

O=P(O)(O)CCN1CCN(CCP(=O)(O)O)CCN(CCP(=O)(O)O)CC1 [Test Species C, N,N',N''-tris(dihydroxyphosphorylethyl)-1,4,7-triazacyclononane]
cleared from the body [4, 8]: over 95% | Survived? ([1]; Dose 10.0mM/kg, Rate 2.0mM/min/kg): yes | concentration of agent in brain ([2]; mice, intravenous): very low concentration

O=P(O)(O)CN1CCN(CP(=O)(O)O)CCN(CP(=O)(O)O)CC1 [Test Species G, N,N',N''-tris(dihydroxyphosphorylmethyl)-1,4,7-triazacyclononane]
Survived? ([1]; Dose 3.1mM/kg, Rate 0.8mM/min/kg): yes

O=P(O)(O)CN1CCN(CP(=O)(O)O)CCN(CP(=O)(O)O)CC1 [Test Species A, N,N',N''-tris(dihydroxyphosphorylmethyl)-1,4,7-triazacyclononane]
proton longitudinal relaxivity relative to the Fe(III) complex of EHPG (times greater) [5]: two to three | administered dose remained in the body ([4]; after 24 hours): less than 5% | cleared from the body [4, 8]: over 95% | route of whole body clearance [4, 8]: almost exclusively through the urine | TLC before and after heating [6]: A single, chromatographically distinct spot which did not vary as a result of the heating | Survived? ([1]; Dose 11.8mM/kg, Rate 0.4mM/sec/kg): yes | toxicity observed, versus the single, chromatographically distinct product ([1]; preparations made by alternate complexation procedures, containing multiple forms of the complex by TLC): substantially greater | solubility [7]: > 500 mg/mL | accumulation of activity in fractured tibia versus contralateral normal tibia ([2]; mice with a tibia broken two to four weeks prior to the study): significantly greater accumulation of activity | ratio of concentration in bone and kidney to that in blood ([2]; mice, intravenous, after 24 hours): high ratio | activity in the brain ([2]; mice, intravenous, at all times following administration): very low activity | concentration of radioactivity in bone and kidneys ([2]; mice, intravenous, within 2 minutes following administration): evidence of concentration of radioactivity in bone and kidneys

Fe(III) complex of N,N',N''-tris(dihydroxyphosphorylmethyl)-1,4,7-triazacyclononane
species present after equimolar EHPG was added to the Fe(III) complex (reverse experiment) [3]: TLC showed only the presence of the Fe(III) N,N',N''-tris(dihydroxyphosphorylmethyl)-1,4,7-triazacyclononane complex
